ChEMBL document CHEMBL1133392, “Synthesis of a dihydroxythiophene analogue of catechosporines” (2000)
In brackets after ≈: the same amount, converted by molar mass.

Experiments:
Pseudomonas aeruginosa = assay: In vitro for minimum inhibitory concentration against Pseudomonas aeruginosa (40 strains); assay type: functional
Staphylococcus aureus = assay: In vitro minimum inhibitory concentration against Staphylococcus aureus (20 strains); assay type: functional

MIC (Pseudomonas aeruginosa) [µg/mL] | MIC (Staphylococcus aureus) [µg/mL] | SMILES
0.06 (≈ 0.0815 µM) | 1.4 (≈ 1.9 µM) | N#Cc1cc(C(O/N=C(\C(=O)N[C@@H]2C(=O)N3C(C(=O)[O-])C(/C=C/C[n+]4cccc5ccsc54)CS[C@H]23)c2csc(N)n2)C(=O)O)cc(O)c1O (stereo partly drawn)
38 (≈ 51.6 µM) | 0.17 (≈ 0.231 µM) | N#Cc1sc(C(O/N=C(\C(=O)N[C@@H]2C(=O)N3C(C(=O)[O-])C(/C=C/C[n+]4cccc5ccccc54)CS[C@H]23)c2csc(N)n2)C(=O)O)c(O)c1O (stereo partly drawn)
0.12 (≈ 0.163 µM) | 3.6 (≈ 4.89 µM) | N#Cc1ccc(C(O/N=C(\C(=O)N[C@@H]2C(=O)N3C(C(=O)[O-])C(/C=C/C[n+]4cccc5ccsc54)CS[C@H]23)c2csc(N)n2)C(=O)O)c(O)c1O (stereo partly drawn)
3.12 (≈ 4.38 µM) | 0.92 (≈ 1.29 µM) | Nc1nc(/C(=N/OC(C(=O)O)c2cc(O)c(O)cn2)C(=O)N[C@@H]2C(=O)N3C(C(=O)[O-])C(/C=C/C[n+]4cccc5ccsc54)CS[C@H]23)cs1 (stereo partly drawn)
